Source: publication PMC12263422, “Cryo-EM structure of the human THIK-1 K2P K^+ channel reveals a lower Y gate regulated by lipids and anesthetics” (Nature Structural & Molecular Biology, 2025)
Several values for one entry are separate records, joined by “and”; a condition that tells them apart may be missing. Identical values can stand only once.

Target: T1, THIK-1 Y273A (Homo sapiens, UniProt Q9HB14, Y273A)
T1 construct: expressed in transfected cells; host or cells: Xenopus oocytes (mRNA injection)
T1 sequence (Q9HB14 1-408 Y273A): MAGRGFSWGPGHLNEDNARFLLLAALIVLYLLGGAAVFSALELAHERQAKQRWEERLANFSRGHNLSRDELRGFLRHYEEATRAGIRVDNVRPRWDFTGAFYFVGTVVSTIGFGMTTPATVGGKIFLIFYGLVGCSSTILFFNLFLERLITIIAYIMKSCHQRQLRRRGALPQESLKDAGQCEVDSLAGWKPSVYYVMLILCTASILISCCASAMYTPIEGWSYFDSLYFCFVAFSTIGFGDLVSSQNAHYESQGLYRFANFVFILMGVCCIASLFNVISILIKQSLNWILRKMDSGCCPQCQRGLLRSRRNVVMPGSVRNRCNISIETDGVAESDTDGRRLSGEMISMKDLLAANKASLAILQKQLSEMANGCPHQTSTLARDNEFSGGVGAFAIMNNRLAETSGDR
Experiment: Inside-out excised patch recordings, oocytes, THIK-1 Y273A mutant
Type: cell-based
Design: Halothane inhibition: concentration or dose not given beside the values
Excerpt: Human K2P13.1 THIK-1 (GenBank accession number: NM_022054) and human K2P12.1 THIK-2 (NM_022055.1) were used in this study. For functional expression studies, the respective K^+ channel subtype coding sequences were subcloned into the oocyte expression vector pSGEM or the dual-purpose expression vector pFAW[41] and verified by sequencing. All mutant channels were obtained by site-directed mutagenesis and verified by sequencing. To increase surface expression and macroscopic currents, measurements of THIK-2 channels used a mutated ER retention motif, (R11A R12A R14A R15A R16A; THIK-2*)[20]. Vector DNA was linearized with NheI or MluI, and mRNA was synthesized in vitro using the SP6 or T7 AmpliCap Max High Yield Message Maker Kit (Cellscript, USA) or HiScribe T7 ARCA mRNA Kit (New England Biolabs).
Two-electrode voltage–clamp (TEVC) studies were performed in Xenopus oocytes. All animal use conformed to the Guide for the Care and Use of Laboratory Animals (NIH Publication 85–23), and all experiments using Xenopus toads were approved by the local ethics panels. Oocytes were stored at 17 °C in ND96 recording solution composed of (in mM): 96 NaCl, 2 KCl, 1.8 CaCl2, 1 MgCl2, 5 HEPES (pH 7.5 adjusted with NaOH and HCl), supplemented with Na-pyruvate (275 mg L^–1), theophylline (90 mg L^–1) and gentamicin (50 mg L^–1). Oocytes were injected with 1 ng mRNA for WT or mutant channels, and were incubated for 24–48 h at 17 °C. Two-electrode voltage clamp recordings were then performed as previously described[42],[43]. For macroscopic patch–clamp measurements, oocytes were obtained as described above incubated at 17 °C in a solution containing (mM): 54 NaCl, 30 KCl, 2.4 NaHCO3, 0.82 MgSO4 ×7 H2O, 0.41 CaCl2, 0.33 Ca(NO3)2 ×4 H2O and 7.5 TRIS (pH 7.4 adjusted with NaOH and HCl) for 1–4 days before use. Excised patch recordings in inside-out configuration conditions were performed at room temperature. […] Intracellular bath solutions and compounds were applied to the cytoplasmic side of excised patches for the various K^+ channels through a gravity flow multi-barrel pipette system. The intracellular solution had the following composition (in mM): 120 KCl, 10 HEPES, 2 EGTA and 1 pyrophosphate (pH adjusted with KOH and HCl). Currents were recorded with an EPC10 amplifier (HEKA Electronics) and sampled at 10 kHz or higher, with filtering set to 3 kHz (–3 dB) or higher, as appropriate for sampling rate. For measurements of GPCR activation, whole-cell currents were recorded for THIK-1 in transiently transfected HEK-293 cells. Cells were stimulated by a ramp protocol between −100 and +60 mV (holding potential, −80 mV). The pipette solution was composed of (in mM): 140 KCl, 2 MgCl2, 1 CaCl2, 2.5 EGTA and 10 HEPES (pH 7.3 adjusted with KOH and HCl). The extracellular bath solution had the following composition (in mM): 135 NaCl, 5 KCl, 2 MgCl2, 2 CaCl2, 10 glucose and 10 HEPES pH (pH 7.3 adjusted with NaOH and HCl). Oxotremorine M (Oxo-M) was added to extracellular bath solution to obtain the final concentration. Single-channel currents were recorded with an Axopatch 200B amplifier through a Digidata 1440A digitizer (Molecular Devices). Data were filtered at 2 kHz and recorded at a 200-kHz sampling rate with the program Clampex (Molecular Devices). Pipette solution and bath solution for cell-attached recordings contained (in mM): 140 KCl, 2 MgCl2, 1 CaCl2 and 10 HEPES (pH 7.4 adjusted with KOH and HCl). For inside-out recordings, the bath solution contained (in mM): 140 KCl, 2 MgCl2, 1 CaCl2 and 10 HEPES (pH 7.2 adjusted with KOH and HCl). All experiments were conducted at room temperature.
TPenA, linoleic acid, L-α-phosphatidylinositol 4,5-bisphosphate (brain PI(4,5)P2, PIP2) (Sigma-Aldrich and Merck) and oleoyl-CoA (LC-CoA 18:1) (Avanti Polar Lipids) were prepared as stocks (1–100 mM) in DMSO, stored at −80 °C and diluted to the final concentration in the intracellular recording solution. Oxo-M (Tocris Bioscience,) was prepared as 50 mM stock in H2O. […]

Compound: FC(F)OC(Cl)C(F)(F)F (stereo not drawn) [Isoflurane, isoflurane]
- Inhibition (%) (4.9 mM Isoflurane, Y273A, individual recordings): 36.141% and 64.534% and 64.029% and 67.231% and 69.534% and 60.746% and 65.223% and 43.937% and 15.847% and 38.113% and 40.962% and 42.936%
- inhibition at 242 µM (isoflurane 0.242 mM, THIK-1 Y273A): 9.07%
- inhibition at 485 µM (isoflurane 0.485 mM, THIK-1 Y273A): 17.7%
- inhibition at 2420 µM (isoflurane 2.42 mM, THIK-1 Y273A): 30.9%
- inhibition at 4850 µM (isoflurane 4.85 mM, THIK-1 Y273A): 50.8%
- inhibition at 24200 µM (isoflurane 24.2 mM, THIK-1 Y273A): 75%

Compound: FC(F)(F)C(Cl)Br (stereo not drawn) [halothane]
- Inhibition (%) (3.0 mM halothane, Y273A, individual recordings): 24.640% and 18.199% and 20.441% and 32.359% and 23.062% and 35.325% and 35.762% and 32.640% and 40.661% and 24.150% and 21.311% and 24.444% and 21.407% and 27.084%
- inhibition at 3000 µM (3.0 mM halothane, Y273A, mean): 27.2%
- Halothane inhibition (THIK-1 Y273A, 4 K+ ex., individual recordings): 48.800% and 50.390% and 50.850% and 54.290% and 50.150% and 44.140% and 43.970% and 46.310% and 43.270% and 42.110%
- Halothane inhibition (THIK-1 Y273A, 4 K+ ex., mean): 47.43%
- Halothane inhibition (THIK-1 Y273A, 120 K+ ex., individual recordings): 50.140% and 54.850% and 53.810% and 41.990% and 54.110% and 49.130% and 50.870% and 49.910% and 52.660%
- Halothane inhibition (THIK-1 Y273A, 120 K+ ex., mean): 50.83%

Compound: CCCCC[N+](CCCCC)(CCCCC)CCCCC [TPenA, tetrapentylammonium]
- Normalized currents (TPenA 0.1 µM, THIK-1 Y273A): 1.00
- Normalized currents (TPenA 1 µM, THIK-1 Y273A): 0.96
- Normalized currents (TPenA 4 µM, THIK-1 Y273A): 0.84
- Normalized currents (TPenA 15.6 µM, THIK-1 Y273A): 0.65
- Normalized currents (TPenA 62.5 µM, THIK-1 Y273A): 0.41
- Normalized currents (TPenA 250 µM, THIK-1 Y273A): 0.19
- Normalized currents (TPenA 1000 µM, THIK-1 Y273A): 0.07
- Normalized currents (TPenA 4000 µM, THIK-1 Y273A): 0.03
- τ of 1 mM TPenA block (Y273A, individual recordings): 0.054 s and 0.134 s and 0.071 s and 0.075 s and 0.076 s and 0.081 s and 0.059 s and 0.121 s and 0.057 s and 0.060 s
- τ of 1 mM TPenA release (Y273A, individual recordings): 0.946 s and 0.858 s and 0.474 s and 1.777 s and 0.915 s and 1.232 s and 0.747 s and 0.935 s and 0.998 s and 1.301 s
- τ of 1 mM TPenA block (Y273A, mean): 0.08 s
- τ of 1 mM TPenA release (Y273A, mean): 1.02 s

Compound: FCOC(C(F)(F)F)C(F)(F)F [Sevoflurane, sevoflurane]
- Inhibition (%) (0.24 mM Sevoflurane, Y273A, individual recordings): 39.37% and 26.75% and 26.20% and 15.99% and 28.93% and 17.93% and 28.11%
- inhibition at 240 µM (0.24 mM Sevoflurane, Y273A, mean): 26.2%
- inhibition at 23 µM (THIK-1 Y273A, 0.023 mM sevoflurane): 6.96%
- inhibition at 47 µM (THIK-1 Y273A, 0.047 mM sevoflurane): 10.4%
- inhibition at 468 µM (THIK-1 Y273A, 0.468 mM sevoflurane): 38.6%
- inhibition at 2340 µM (THIK-1 Y273A, 2.34 mM sevoflurane): 62.5%
